Measurements: publication PMC9194863, “A novel small-molecule selective activator of homomeric GIRK4 channels” (The Journal of Biological Chemistry, 2022)
Numbering of substitutions follows the chain as printed.

Assays:
Test in all cases: two-electrode voltage clamp, Xenopus oocytes
Format in all cases: cell-based
[1] = target: T1, GIRK4 homomeric channel (GIRK4, G4) (Homo sapiens, UniProt P48544)
T1 construct: gene KCNJ5; full-length GIRK4 in pGEMSH vector, homotetramer, expressed in Xenopus laevis oocytes
T1 sequence (P48544 1-419): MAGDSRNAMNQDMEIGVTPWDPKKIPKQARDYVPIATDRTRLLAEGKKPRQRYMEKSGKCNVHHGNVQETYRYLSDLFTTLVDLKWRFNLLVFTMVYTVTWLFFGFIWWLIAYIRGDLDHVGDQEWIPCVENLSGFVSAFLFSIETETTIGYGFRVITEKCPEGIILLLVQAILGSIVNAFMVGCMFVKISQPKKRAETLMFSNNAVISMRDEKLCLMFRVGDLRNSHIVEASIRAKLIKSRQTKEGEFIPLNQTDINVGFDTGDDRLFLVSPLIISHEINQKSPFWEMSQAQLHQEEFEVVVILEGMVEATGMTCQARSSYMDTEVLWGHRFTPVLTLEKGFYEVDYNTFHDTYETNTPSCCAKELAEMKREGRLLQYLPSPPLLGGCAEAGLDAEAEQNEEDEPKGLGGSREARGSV

[2] = target: T2, GIRK4 homomeric channel (GIRK4, G4) (Homo sapiens, UniProt P48544, L90A); details: activator, high potassium ND96K
T2 construct: gene KCNJ5; full-length GIRK4 in pGEMSH vector, homotetramer, expressed in Xenopus laevis oocytes
T2 sequence (P48544 1-419 L90A): T1 sequence (P48544 1-419) with L90A

[3] = target: T3, GIRK4 homomeric channel (GIRK4, G4) (Homo sapiens, UniProt P48544, I177V); details: activator, high potassium ND96K
T3 construct: gene KCNJ5; full-length GIRK4 in pGEMSH vector, homotetramer, expressed in Xenopus laevis oocytes
T3 sequence (P48544 1-419 I177V): T1 sequence (P48544 1-419) with I177V

[4] = target: T4, GIRK4 homomeric channel (GIRK4, G4) (Homo sapiens, UniProt P48544, S75T); details: activator, high potassium ND96K
T4 construct: gene KCNJ5; full-length GIRK4 in pGEMSH vector, homotetramer, expressed in Xenopus laevis oocytes
T4 sequence (P48544 1-419 S75T): T1 sequence (P48544 1-419) with S75T

[5] = target: T5, GIRK4 homomeric channel (GIRK4, G4) (Homo sapiens, UniProt P48544, L77I); details: activator, high potassium ND96K
T5 construct: gene KCNJ5; full-length GIRK4 in pGEMSH vector, homotetramer, expressed in Xenopus laevis oocytes
T5 sequence (P48544 1-419 L77I): T1 sequence (P48544 1-419) with L77I

[6] = target: T6, GIRK4 homomeric channel (GIRK4, G4) (Homo sapiens, UniProt P48544, S75A); details: activator, high potassium ND96K
T6 construct: gene KCNJ5; full-length GIRK4 in pGEMSH vector, homotetramer, expressed in Xenopus laevis oocytes
T6 sequence (P48544 1-419 S75A): T1 sequence (P48544 1-419) with S75A

GIRK2∗ (GIRK2:E152D) [7] = target: T7, GIRK2∗ (GIRK2:E152D) (Mus musculus, UniProt P48542, I82L/E152D); details: activator, high potassium ND96K
T7 construct: gene Kcnj6; GIRK2 E152D in pXOOM vector, homotetramer, expressed in Xenopus laevis oocytes
T7 sequence (P48542 1-425 I82L/E152D): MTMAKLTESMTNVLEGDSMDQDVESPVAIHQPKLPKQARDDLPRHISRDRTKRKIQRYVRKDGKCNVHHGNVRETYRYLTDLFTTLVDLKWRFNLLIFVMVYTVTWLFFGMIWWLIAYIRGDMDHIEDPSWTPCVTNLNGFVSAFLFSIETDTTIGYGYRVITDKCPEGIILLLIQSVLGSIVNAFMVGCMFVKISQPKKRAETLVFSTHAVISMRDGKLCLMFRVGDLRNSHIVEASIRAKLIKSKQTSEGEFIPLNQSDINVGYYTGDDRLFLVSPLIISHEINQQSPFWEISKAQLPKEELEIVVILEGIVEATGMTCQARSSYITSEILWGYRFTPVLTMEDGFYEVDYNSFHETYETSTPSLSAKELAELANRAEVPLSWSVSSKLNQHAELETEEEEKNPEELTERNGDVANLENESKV

[8] = target: T8, GIRK4 homomeric channel (GIRK4, G4) (Homo sapiens, UniProt P48544, G247R); details: activator, high potassium ND96K
T8 construct: gene KCNJ5; full-length GIRK4 in pGEMSH vector, homotetramer, expressed in Xenopus laevis oocytes
T8 sequence (P48544 1-419 G247R): T1 sequence (P48544 1-419) with G247R

GIRK2∗ (GIRK2:E152D) [9] = target: T9, GIRK2∗ (GIRK2:E152D) (Mus musculus, UniProt P48542, T80S/I82L/E152D); details: activator, high potassium ND96K
T9 construct: gene Kcnj6; GIRK2 E152D in pXOOM vector, homotetramer, expressed in Xenopus laevis oocytes
T9 sequence (P48542 1-425 T80S/I82L/E152D): T7 sequence (P48542 1-425 I82L/E152D) with T80S

[10] = target: T10, GIRK4 homomeric channel (GIRK4, G4) (Homo sapiens, UniProt P48544, F181A); details: activator, high potassium ND96K
T10 construct: gene KCNJ5; full-length GIRK4 in pGEMSH vector, homotetramer, expressed in Xenopus laevis oocytes
T10 sequence (P48544 1-419 F181A): T1 sequence (P48544 1-419) with F181A

COc1ccc(C(=O)CC2(O)C(=O)N(Cc3cccc4ccccc34)c3ccccc32)cc1OC (stereo not shown) [3hi2one-G4, 3-[2-(3,4-dimethoxyphenyl)-2-oxoethyl]-3-hydroxy-1-(1-naphthylmethyl)-1,3-dihydro-2H-indol-2-one]
EC50 [1]: 12.7 µM
I/Ibasal at 30 μM [2]: GIRK4:I177V, GIRK4:F181A, and GIRK4:I190A showed reduced 3hi2one-G4–induced currents
I/Ibasal at 30 μM [3]: GIRK4:I177V, GIRK4:F181A, and GIRK4:I190A showed reduced 3hi2one-G4–induced currents
I/Ibasal at 30 μM [4]: whereas a Thr mutation significantly but partially affected the compound’s effectiveness
I/Ibasal at 30 μM [5]: GIRK4:I177V, GIRK4:F181A, and GIRK4:I190A showed reduced 3hi2one-G4–induced currents
I/Ibasal at 30 μM [6]: Mutation of residue S75 to Ala did not yield a significant change in the ability
current at 30 μM (GIRK2∗ (GIRK2:E152D) [7]): GIRK2∗:I82L and GIRK2∗:T80S/I82L but not GIRK2:T80S could be activated by 3hi2one-G4
current at 30 μM [8]: GIRK4:G247R, which is functional, was robustly activated by 3hi2one-G4
current at 30 μM (GIRK2∗ (GIRK2:E152D) [9]): GIRK2∗:I82L and GIRK2∗:T80S/I82L but not GIRK2:T80S could be activated by 3hi2one-G4
I/Ibasal at 30 μM [10]: GIRK4:I177V, GIRK4:F181A, and GIRK4:I190A showed reduced 3hi2one-G4–induced currents
